From ChEMBL document CHEMBL4145621, “4-Substituted Benzenesulfonamides Incorporating Bi/Tricyclic Moieties Act as Potent and Isoform-Selective Carbonic Anhydrase II/IX Inhibitors” (J Med Chem, 2018)

molecular target: Carbonic anhydrase 1 (Homo sapiens, UniProt P00915); test: Inhibition of recombinant human cytosolic CA1 preincubated for 15 mins by phenol red dye-based stopped-flow CO2 hydration assay
Sequence (P00915 whole entry): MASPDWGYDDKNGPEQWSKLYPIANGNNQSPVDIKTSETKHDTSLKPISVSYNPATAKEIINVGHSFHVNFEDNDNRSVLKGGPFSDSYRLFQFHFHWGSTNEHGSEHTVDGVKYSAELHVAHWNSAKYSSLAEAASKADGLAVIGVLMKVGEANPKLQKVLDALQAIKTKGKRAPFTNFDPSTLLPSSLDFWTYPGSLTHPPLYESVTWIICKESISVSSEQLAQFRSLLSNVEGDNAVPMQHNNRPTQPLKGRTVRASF

Ki	SMILES
> 10000 nM	NS(=O)(=O)c1ccc(-n2ncc3c2-c2cnc(-c4ccccc4)nc2CC3)cc1

molecular target: Carbonic anhydrase 9 (Homo sapiens, UniProt Q16790); test: Inhibition of recombinant human CA9 preincubated for 15 mins by phenol red dye-based stopped-flow CO2 hydration assay

Ki	SMILES
7.3 nM	NS(=O)(=O)c1ccc(-n2ncc3c2-c2cnc(-c4ccccc4)nc2CC3)cc1
0.89 nM	CC1(C)CC(=O)c2cnc(Nc3ccc(S(N)(=O)=O)cc3)nc2C1
0.88 nM	CC1(C)CC(=O)c2cnn(-c3ccc(S(N)(=O)=O)cc3)c2C1
5.2 nM	NS(=O)(=O)c1ccc(-n2ncc3c2CCCC3=O)cc1
0.79 nM	NS(=O)(=O)c1ccc(Nc2ncc3c(n2)CC(c2ccccc2)CC3=O)cc1 (stereo not given)
0.57 nM	NS(=O)(=O)c1ccc(-n2ncc3c2-c2cncnc2CC3)cc1
7 nM	Cc1ncc2c(n1)CCc1cnn(-c3ccc(S(N)(=O)=O)cc3)c1-2
0.73 nM	NS(=O)(=O)c1ccc(-n2ncc3c2CC(c2ccccc2)CC3=O)cc1 (stereo not given)
0.55 nM	NS(=O)(=O)c1ccc(Nc2ncc3c(n2)CCCC3=O)cc1
